In patent publication US20140142094A1, “KINASE INHIBITORS” (ICAHN SCHOOL OF MEDICINE AT MOUNT SINAI, priority 2011, published 2014):
pIC50: −log10 of the molar value.

Experiments:
DU145 (prostate cancer) = test: Cytotoxicity on DU145 cancer cell line; format: cell-based; conditions: Homo sapiens, DU-145; DU145 cells, 96 h treatment
Procedure: (§1) The effect of the compounds described herein on tumor cells was determined by the assay described by Latham et al., Oncogene 12:827-837 (1996). Tumor cells K562 (chronic myelogenous leukemia; leukemia cell line +ve for Bcr-Abl) or DU145 (prostate cancer) were plated in 12-well dishes at a cell density of 2.5×10^4 cells per well. The plated cells were treated 24h. later with a DMSO solution of a compound as described herein at multiple concentrations ranging from 0.01 μM to 100 μM. The plates were examined 96 h. later under an inverted microscope, Olympus CK-2 using a 10× objective, and compound activity was noted by physical observation. When necessary, the total number of viable cells was determined by trypsinizing the wells and counting the number of viable cells, as determined by trypan blue exclusion, using a hemacytometer.

[1] = system: K562 (chronic myelogenous leukemia; leukemia cell line +ve for Bcr-Abl); test: Cytotoxicity on K562 cancer cell line; format: cell-based; conditions: Homo sapiens; K562 cells, 96 h treatment
Procedure: as §1

Row | melting point | SMILES | pIC50 (DU145 (prostate cancer)) | pIC50 [1]
1 |  | CN1CCN(c2ccc(Nc3ncc4c(n3)S/C(=C/c3ccc(F)cc3)C(=O)N4)cc2)CC1 [Compound 1a, (E)-7-(4-Fluorobenzylidene)-2-(4-(4-methylpiperazin-1-yl)phenylamino)-5H-pyrimido[4,5-b][1,4]thiazin-6(7H)-one] | 5.00 to 6.00 | 5.00 to 6.00
2 |  | CC(=O)Oc1ccc(/C=C2/Sc3nc(Nc4ccc(N5CCN(C)CC5)cc4)ncc3NC2=O)cc1 [Compound 1c, (E)-4-((2-(4-(4-Methylpiperazin-1-yl)phenylamino)-6-oxo-5H-pyrimido[4,5-b][1,4]thiazin-7(6H)-ylidene)methyl)phenyl acetate] | 5.00 to 6.00 | 5.00 to 6.00
3 |  | COc1ccc(/C=C2/Sc3nc(N(C(C)=O)c4ccc(N5CCN(C)CC5)cc4)ncc3NC2=O)cc1[N+](=O)[O-] [Compound 1d, (E)-N-(7-(4-methoxy-3-nitrobenzylidene)-6-oxo-6,7-dihydro-5H-pyrimido[4,5-b][1,4]thiazin-2-yl)-N-(4-(4-methylpiperazin-1-yl)phenyl)acetamide] | 5.00 to 6.00 | 5.00 to 6.00
4 |  | O=C1Nc2cnc(N3CCN(c4ccccn4)CC3)nc2S/C1=C/c1ccc([N+](=O)[O-])cc1 [Compound 1e, (E)-7-(4-Nitrobenzylidene)-2-(4-(pyridin-2-yl)piperazin-1-yl)-5H-pyrimido[4,5-b][1,4]thiazin-6(7H)-one] | 5.00 to 6.00 | 4.60 to 5.00
5 |  | CC(=O)N1CCN(c2ccc(Oc3ncc4c(n3)S/C(=C/c3ccc([N+](=O)[O-])cc3)C(=O)N4)cc2)CC1 [Compound 1f, (E)-2-(4-(4-Acetylpiperazin-1-yl)phenoxy)-7-(4-nitrobenzylidene)-5H-pyrimido[4,5-b][1,4]thiazin-6(7H)-one] | 4.60 to 5.00 | 4.60 to 5.00
6 |  | CC(=O)N(c1ccc(N2CCN(C)CC2)cc1)c1ncc2c(n1)S/C(=C/c1cn(C(C)=O)c3ccccc13)C(=O)N2 [Compound 1g, (E)-N-(7-((1-Acetyl-1H-indol-3-yl)methylene)-6-oxo-6,7-dihydro-5H-pyrimido[4,5-b][1,4]thiazin-2-yl)-N-(4-(4-methylpiperazin-1-yl)phenyl)acetamide] | 5.00 to 6.00 | 5.00 to 6.00
7 |  | CN1CCN(c2ccc(Nc3ncc4c(n3)S/C(=C/c3ccc(N)cc3)C(=O)N4)cc2)CC1 [Compound 1h, (E)-7-(4-Aminobenzlidene)-2-(4-(4-methylpiperazin-1-yl)phenylamino)-5H-pyrimido[4,5-b][1,4]thiazin-6(7H)-one] | 5.00 to 6.00 | > 6.00
8 |  | CC(=O)Oc1ccc(/C=C2/Sc3nc(N4CCN(c5ccccn5)CC4)ncc3NC2=O)cc1 [Compound 1i, (E)-4-((6-Oxo-2-(4-(pyridin-2-yl)piperazin-1-yl)-5H-pyrimido[4,5-b][1,4]thiazin-7(6H)-ylidene)methyl)phenyl acetate] | 5.00 to 6.00 | 5.00 to 6.00
9 |  | O=C1Nc2cnc(N3CCN(c4ncccn4)CC3)nc2S/C1=C/c1ccc([N+](=O)[O-])cc1 [Compound 1j, (E)-7-(4-Nitrobenzylidene)-2-(4-(pyrimidin-2-yl)piperazin-1-yl)-5H-pyrimido[4,5-b][1,4]thiazin-6(7H)-one] | 4.30 to 4.60 | 4.00 to 4.30
10 | 302 to 304 °C | O=C1Nc2cnc(Nc3ccc(N4CCOCC4)cc3)nc2S/C1=C/c1ccc([N+](=O)[O-])cc1 [Compound 1k, (E)-2-((4-Morpholinophenyl)amino)-7-(4-nitrobenzylidene)-5H-pyrimido[4,5-b][1,4]thiazin-6(7H)-one] | 4.00 to 4.30 | 4.00 to 4.30
11 | 326 to 330 °C | CC(=O)N(c1ccc(N2CCN(C)CC2)cc1)c1ncc2c(n1)S/C(=C/c1ccc(C(=O)O)cc1)C(=O)N2 [Compound 1l, (E)-4-((2-(N-(4-(4-Methylpiperazin-1-yl)phenyl)acetamido)-6-oxo-5H-pyrimido[4,5-b][1,4]thiazin-7(6H)-ylidene)methyl)benzoic acid] | 4.00 to 4.30 | 4.00 to 4.30
12 |  | CC1CCN(c2ccc(Nc3ncc4c(n3)S/C(=C/c3ccc([N+](=O)[O-])cc3)C(=O)N4)cc2)CC1 [Compound 1m, (E)-2-((4-(4-Methylpiperidin-1-yl)phenyl)amino)-7-(4-nitrobenzylidene)-5H-pyrimido[4,5-b][1,4]thiazin-6(7H)-one] | 5.00 to 6.00 | 5.00 to 6.00
13 | 274 to 276 °C | CN1CCN(c2ccc(Nc3ncc4c(n3)S/C(=C/c3ccc(C#N)cc3)C(=O)N4)cc2)CC1 [Compound 1n, (E)-4-((2-((4-(4-Methylpiperazin-1-yl)phenyl)amino)-6-oxo-5H-pyrimido[4,5-b][1,4]thiazin-7(6H)-ylidene)methyl)benzonitrile] | > 6.00 | > 6.00
14 | 238 to 240 °C | CN1CCN(c2ccc(Nc3ncc4c(n3)S/C(=C/c3ccc(OCc5ccccc5)cc3)C(=O)N4)cc2)CC1 [Compound 1o, (E)-7-(4-(Benzyloxy)benzylidene)-2-((4-(4-methylpiperazin-1-yl)pheny)amino)-5H-pyrimido[4,5-b][1,4]thiazin-6(7H)-one] | > 6.00 | > 6.00
15 | 294 to 298 °C | CN1CCN(c2ccc(Nc3ncc4c(n3)S/C(=C/c3ccc(C(N)=O)cc3)C(=O)N4)cc2)CC1 [Compound 1p, (E)-4-((2-((4-(4-Methylpiperazin-1-yl)phenyl)amino)-6-oxo-5H-pyrimido[4,5-b][1,4]thiazin-7(6H)-ylidene)methyl)benzamide] | 5.00 to 6.00 | 5.00 to 6.00
16 | 312 to 314 °C | CN1CCN(c2ccc(Nc3ncc4c(n3)S/C(=C/c3ccc(O)cc3)C(=O)N4)cc2)CC1 [Compound 1q, (E)-7-(4-Hydroxybenzylidene)-2-((4-(4-methylpiperazin-1-yl)phenyl)amino)-5H-pyrimido[4,5-b][1,4]thiazin-6(7H)-one] | > 6.00 | > 6.00
17 |  | CN1CCN(c2ccc(Nc3ncc4c(n3)SCC(=O)N4)cc2)CC1 [Compound 4a, 2-(4-(4-methylpiperazin-1-yl)phenylamino)-5H-pyrimido[4,5-b][1,4]thiazin-6(7H)-one] | 4.60 to 5.00 | 5.00 to 6.00
18 | 242 to 244 °C | O=C1CSc2nc(SCc3c(Cl)cccc3Cl)ncc2N1 [Compound 4d, 2-(2,6-Dichlorobenzylthio)-5H-pyrimido[4,5-b][1,4]thiazin-6(7H)-one] | 4.30 to 4.60 | 4.30 to 4.60
